Ten compounds from ChEMBL document CHEMBL4819142, “Synthesis of propargylamine mycophenolate analogues and their selective cytotoxic activity towards neuroblastoma SH-SY5Y cell line” (Bioorg Med Chem Lett, 2021) can be followed below.

In general, IC50 refers to the concentration that inhibits the measured activity by half.

The nature of experiment [1]: Cytotoxicity against human KKUM213 cells assessed as growth inhibition measured by SRB assay. The following applies: KKU-M213. The format is functional, cell-based.
Experiment [2] has as its system FaDu. In words: Cytotoxicity against human FaDu cells assessed as growth inhibition measured by SRB assay. It counts as functional, cell-based. Background: Sulforhodamine B stains cellular protein and so reports cell mass.
For experiment [3], the system named is HT-29. In words: Cytotoxicity against human HT-29 cells assessed as growth inhibition measured by SRB assay. The format is functional, cell-based.
In experiment [4] the test system is MDA-MB-231. The experiment is described as follows: Cytotoxicity against human MDA-MB-231 cells assessed as growth inhibition measured by SRB assay. The format is functional, cell-based.
Experiment [5] relates to A549. The experiment is described as follows: Cytotoxicity against human A549 cells assessed as growth inhibition measured by SRB assay. It counts as functional, cell-based.
The subject of experiment [6] is SH-SY5Y. In words: Cytotoxicity against human SH-SY5Y cells assessed as growth inhibition measured by SRB assay. It counts as functional, cell-based.
Experiment [7] can be described thus: Cytotoxicity against human […] cells assessed as growth inhibition measured by SRB assay. It counts as cell-based.

As for `COC(=O)CC/C(C)=C/Cc1c(OC)c(C)c2c(c1OCC#CCN(CC#CCOc1c(C/C=C(\C)CCC(=O)OC)c(OC)c(C)c3c1C(=O)OC3)CCC(C)C)C(=O)OC2`, the IC50 was 48.3 µM in experiment [1]; 46.7 µM in experiment [2]; above 50 µM in experiment [3]; 48.6 µM in experiment [4]; 27.5 µM in experiment [5]; 20.6 µM in experiment [6]. Further, the half-maximal inhibitory concentration (IC50) in experiment [7] is 48.2 µM.
Turning to `C=CCN(CC#CCOc1c(C/C=C(\C)CCC(=O)OC)c(OC)c(C)c2c1C(=O)OC2)CC=C`, the IC50 in experiment [1] was above 50 µM; in experiment [2], above 50 µM; in experiment [3] it was above 50 µM; in experiment [4], above 50 µM; in experiment [5], 43.5 µM; in experiment [6], 36.4 µM. The concentration for half-maximal inhibition (IC50) in experiment [7] worked out at 36.4 µM.
Consider `COC(=O)CC/C(C)=C/Cc1c(OC)c(C)c2c(c1OCC#CCN1CCOCC1)C(=O)OC2`, for which the IC50 in experiment [1], in experiment [2], in experiment [3], in experiment [4], in experiment [5] and in experiment [6] was above 50 µM throughout. Further, the concentration for half-maximal inhibition (IC50) in experiment [7] is above 50 µM.
Turning to `COC(=O)CC/C(C)=C/Cc1c(OC)c(C)c2c(c1OCC#CCN1CCCC1)C(=O)OC2`, the IC50 in experiment [1] is above 50 µM; in experiment [2] it was above 50 µM; in experiment [3] it was 46.5 µM; in experiment [4] it was above 50 µM; in experiment [5], 35.9 µM; in experiment [6] it was 31.1 µM. Further, the half-inhibitory concentration (IC50) in experiment [7] is above 50 µM.
In the case of `CCCCNc1ccc(CC#CCOc2c(C/C=C(\C)CCC(=O)OC)c(OC)c(C)c3c2C(=O)OC3)cc1`, the IC50 in experiment [1] is 22.9 µM; in experiment [2], 21.2 µM; in experiment [3], 36.7 µM; in experiment [4], 19.8 µM; in experiment [5], 6.97 µM; in experiment [6], 5.96 µM. Also, the IC50 in experiment [7] is 18.3 µM.
As for `CCCCN(CC#CCOc1c(C/C=C(\C)CCC(=O)OC)c(OC)c(C)c2c1C(=O)OC2)CCCC`, the IC50 in experiment [1] is 38.2 µM; in experiment [2], 30.9 µM; in experiment [3], above 50 µM; in experiment [4], 39.8 µM; in experiment [5] it was 30.6 µM; in experiment [6], 21.5 µM. The concentration for half-maximal inhibition (IC50) in experiment [7] came out at 36 µM.
For `COC(=O)CC/C(C)=C/Cc1c(OC)c(C)c2c(c1OCC#CCN1CCC(c3ccccc3)c3ccccc31)C(=O)OC2` (stereo not given), the IC50 in experiment [1] was found to be 25.9 µM; in experiment [2], 24.6 µM; in experiment [3], 39.5 µM; in experiment [4], 28.7 µM; in experiment [5], 7.68 µM; in experiment [6] it was 6.45 µM. The IC50 in experiment [7] was determined as 23.3 µM.
Consider `COC(=O)CC/C(C)=C/Cc1c(OC)c(C)c2c(c1OCC#CCN1CCCc3ccccc31)C(=O)OC2`, for which the IC50 in experiment [1] is above 50 µM; in experiment [2], above 50 µM; in experiment [3], above 50 µM; in experiment [4] it was above 50 µM; in experiment [5], 18 µM; in experiment [6], 9.57 µM. In addition, the IC50 in experiment [7] was above 50 µM.
Regarding `Cc1c2ccncc2c(C)c2c1[nH]c1ccccc12` [ELLIPTECINE], the IC50 came to 1.97 µM in experiment [1]; 1.85 µM in experiment [2]; 1.95 µM in experiment [3]; 2.03 µM in experiment [4]; 1.16 µM in experiment [5]; 2.13 µM in experiment [6]. For the same compound, the IC50 in experiment [7] came to 1.89 µM.
On to `COc1c(C)c2c(c(O)c1C/C=C(\C)CCC(=O)O)C(=O)OC2` [MYCOPHENOLIC ACID], for which the half-maximal inhibitory concentration (IC50) was 7.16 µM in experiment [1]; 6.72 µM in experiment [2]; 6.48 µM in experiment [3]; 7.83 µM in experiment [4]; 1.21 µM in experiment [5]; 0.56 µM in experiment [6]. Moreover, in experiment [7], the half-inhibitory concentration (IC50) is 7.19 µM.
